Assays:
[1] = target: T1, hyaluronidase (SIGMA), purified from bovine testicles (Bos taurus, UniProt Q2YDK3); experiment: Measurement of the activity of hyaluronidase (purified enzyme); assay type: biochemical; conditions: hyaluronidase test, 60 minutes at 37° C.
T1 construct: purified from bovine testicles; purchased SIGMA; host or cells: bovine testicles
T1 sequence (Q2YDK3 36-553): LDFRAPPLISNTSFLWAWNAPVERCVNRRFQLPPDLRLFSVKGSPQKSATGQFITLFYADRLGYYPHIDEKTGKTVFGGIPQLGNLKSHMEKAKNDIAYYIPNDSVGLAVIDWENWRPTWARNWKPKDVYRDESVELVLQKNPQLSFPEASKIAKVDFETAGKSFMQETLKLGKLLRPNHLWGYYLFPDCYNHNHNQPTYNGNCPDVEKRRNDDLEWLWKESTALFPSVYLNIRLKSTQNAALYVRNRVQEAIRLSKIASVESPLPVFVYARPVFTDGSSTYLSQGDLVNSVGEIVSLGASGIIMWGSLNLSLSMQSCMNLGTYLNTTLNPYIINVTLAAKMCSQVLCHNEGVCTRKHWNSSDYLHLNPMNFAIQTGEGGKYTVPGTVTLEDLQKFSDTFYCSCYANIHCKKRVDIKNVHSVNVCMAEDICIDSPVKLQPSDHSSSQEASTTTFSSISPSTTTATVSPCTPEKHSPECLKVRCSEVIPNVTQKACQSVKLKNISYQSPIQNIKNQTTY
Protocol: The objective of this test is to measure the activity of hyaluronidase. This enzyme, which is naturally found in the skin, degrades hyaluronic acid. The study is carried out in vitro on the purified enzyme.
The hyaluronidase (SIGMA), purified from bovine testicles, is incubated at 0.01 U/ml in the presence of hyaluronic acid at 0.02 mg/ml, with or without test product. The incubation is carried out for 60 minutes at 37° C.
Evaluation of the effects: After the incubation, the hyaluronic acid not degraded by the enzyme is precipitated by a 24 mM sodium acetate/79. mM acetic acid mixture (10 minutes, room temperature). The precipitate is measured by spectrophotometry at 590 nm.
The effect of the test products is compared to that observed in the presence of dipotassium glycyrrhizinate, a reference hyaluronidase inhibitor.

human pancreatic lipase = target: T2, human pancreatic lipase (Homo sapiens, UniProt P16233); experiment: Measurement of the activity of lipase (LIPASE-PS kit, absorbance 550 nm); assay type: biochemical; conditions: relative to the control, 8 minutes at 37° C.
T2 construct: purchased SIGMA LIPASE-PS kit
T2 sequence (P16233 17-465): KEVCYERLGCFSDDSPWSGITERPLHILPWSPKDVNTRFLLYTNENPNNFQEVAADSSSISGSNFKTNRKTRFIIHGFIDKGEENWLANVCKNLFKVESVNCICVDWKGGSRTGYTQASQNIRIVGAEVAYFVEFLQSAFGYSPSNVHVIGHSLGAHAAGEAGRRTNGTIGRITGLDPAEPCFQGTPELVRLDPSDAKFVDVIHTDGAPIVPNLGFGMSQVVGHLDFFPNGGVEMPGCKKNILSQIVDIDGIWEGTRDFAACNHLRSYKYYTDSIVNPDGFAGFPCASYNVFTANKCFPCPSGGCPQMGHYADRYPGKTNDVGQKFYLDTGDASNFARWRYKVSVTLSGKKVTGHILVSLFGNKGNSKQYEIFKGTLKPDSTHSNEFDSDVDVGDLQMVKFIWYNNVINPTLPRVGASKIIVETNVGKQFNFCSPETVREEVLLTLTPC
T2 sequence (P02703 23-112 partner): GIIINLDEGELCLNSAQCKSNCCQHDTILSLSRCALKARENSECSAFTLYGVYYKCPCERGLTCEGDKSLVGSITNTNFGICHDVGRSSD
Protocol: Lipase is an enzyme which degrades triglycerides to fatty acids and glycerol according to the following reaction scheme: [drawing 5]
Inside the adipocytes, the free fatty acids can thus be removed from storage. […] It is based on an enzymatic test, using a purified enzyme.
A human pancreatic lipase (SIGMA, LIPASE-PS™ kit) is incubated in the presence of a diglyceride and a reaction system to produce a coloured quinone diimine which can be assayed by spectrophotometry (550 nm). The measurement of the absorbance at 550 nm is directly proportional to the activity of the lipase.
All the […] are provided in the LIPASE-PS™ kit (SIGMA) . The product is incubated with the reaction mixture for 8 minutes at 37° C.
The reaction system used is composed of:
The results are presented in the following table as a percentage activation of the lipase relative to the control.

lipoprotein lipase (LPL) = experiment: Measurement of the activity of lipoprotein lipase (PNPB hydrolysis, 400 nm); assay type: biochemical, pseudomonas species; conditions: relative to the control
Protocol: Lipoprotein lipase (LPL) is an enzyme found in the extracellular compartment of adipocytes. It brings about the hydrolysis of the triglycerides contained in the chylomicrons to fatty acids and glycerol. The latter can thus penetrate into the adipocytes to be stored therein. […] It is based on an enzymatic test using a purified enzyme. A lipoprotein lipase (SIGMA, pseudomonas species) is incubated in the presence of a substrate, p-nitrophenyl butyrate (PNPB), which absorbs light at 400 nm after hydrolysis. [drawing 6] The enzyme, at 20 U/ml, is incubated in the presence of the test product and PNPB, at 0.9 mM. The kinetics of appearance of p-nitrophenol is performed at 37° C. for 10 minutes. It is monitored by measuring the absorbance at 400 nm. The results are presented in the following table, as a percentage inhibition of the lipoprotein lipase activity relative to the control.

[2] = incubation concentration 0.01 % DE
[3] = incubation concentration 0.1 % DE

Cn1c(=O)c2c(ncn2C)n(C)c1=O [Caffeine, 1,3,7-trimethyl-xanthine] was tested, and the “Percentage inhibition of hyaluronidase activity” value ([1]; incubation concentration 0.001 % DE) was 15%, the “Percentage inhibition of hyaluronidase activity” value [1, 2] was 20% and the “Percentage activation of the lipase” value (human pancreatic lipase; [2]) was 0%. The “Percentage activation of the lipase” value (human pancreatic lipase; [3]) was 10%, the “Percentage inhibition of LPL” value (lipoprotein lipase (LPL); [2]) was 0% and the “Percentage inhibition of LPL” value (lipoprotein lipase (LPL); [3]) was 0%.

From patent US20040166079A1, “N-Lauroyl amino acid composition for slimming the human body” (priority 2003, published 2004)
